Data set [1] is described as follows: pH-dependent spectroscopic properties (pH titration, absorption and fluorescence). It counts as physicochemical. The note with it: weakly basic conditions (pH of about 7.4); PBS containing 50% ethanol. How it is done: In each step of pH titration, small volumes (2-10 μL) of HCl at appropriate concentrations (0.1, 10^−2, or 10^−3 M) were pipetted directly into the measurement cell, followed by filling up with 2 mL of 1 μM dye-containing solution [either in a mixture of PBS/ethanol 1:1 (v/v) or 0.5% (v/v) DMSO]. The pH was monitored at 298 K using a digital pH meter (827 pH lab) equipped with a Biotrode (Metrohm, Herisau, Switzerland). Calibration of the instrument was performed with standard aqueous solutions of pH 4, 7, and 9 from Metrohm. Absorption and fluorescence measurements were carried out on an Agilent Cary 5000 spectrophotometer and a Horiba Jobin Yvon spectrometer (Nanolog FL3-2iHR), respectively.
We investigated the spectroscopic properties of the fluorescent probe as a function of pH in phosphate-buffered saline (PBS) containing 50% ethanol by UV-vis spectrophotometry and fluorimetry (FIGS. 21A-21F, 22-23).

The subject of a further data set is A549 cells. Briefly: Cytotoxicity of the probe (alamarBlue cell viability). The class given is cell-based. The note with it: 2 μM, 0.1% DMSO, 12 h. How it is done:
(§1) FIGS. 28A-28C Cytotoxicity of the probe. Pre-seeded in 96-well plates, HEK293, HeLa, and A549 cells were incubated in complete DMEM containing different concentrations of leuco-BODIPY [dissolved in dimethyl sulfoxide (DMSO)] for 12 h. The alamarBlue reagent (Invitrogen) was used to test cell viability by measuring the optical absorbance at 570 nm and 600 nm by a Multiskan GO UV-absorbance microplate reader. Reported data represent mean±SD from three independent experiments.
(§2) We studied the mechanism for the cellular uptake of our probe by a pharmacological approach.

The subject of the next data set is HEK293 cells. The description is as above. The class given is cell-based. The settings on record: 2 μM, 0.1% DMSO, 12 h. How it is done:
as §1, §2

Data set [2] relates to HeLa cells. Described as above. It counts as cell-based. The settings on record: 2 μM, 0.1% DMSO, 12 h. The protocol: as §1, §2
For data set [3], the system named is EVs secreted by A549 cells. Briefly: Estimation of the fluorescence signal per EV. The class given is cell-based. The note with it: 5 μM leuco-BODIPY, 30 min, excitation 584 nm, emission 612 nm, net fluorescence divided by number of EVs (NTA). How it is done: (§3) Cells were pre-seeded in a 96-well plate in complete DMEM without phenol red. During the experiment, 200 μL of either fresh complete DMEM without phenol red or 5 μM leuco-BODIPY formulated in fresh complete DMEM without phenol red was added to the cells. After 30 min, the medium was collected and centrifuged for 10 min at 200×g to remove any dye-stained cell debris. The fluorescence signal in the medium was measured by a fluorescent plate reader (ThermoFisher Fluoroskan Ascent) at an excitation wavelength of 584 nm and emission wavelength of 612 nm. The net fluorescence in the dye-treated EV sample was determined by subtracting the background fluorescence of the untreated EV sample from the fluorescence of the dye-treated EV sample. Complete DMEM without phenol red was also used as a control to determine the background fluorescence of the blank culture medium. After the microplate reader experiment, each EV sample was made up to a total of 1 mL by adding DMEM without phenol red, followed by injection into a Malvern Nanosight NS500 instrument for measuring the total number of EVs in the sample. […] The fluorescence signal per EV was estimated by dividing (1) the net fluorescence (with background subtraction) of the EV sample as measured by the microplate reader by (2) the number of EVs in the sample as measured by NTA.
(§4) Moreover, we incubated the three cell types with our probe for 30 min, isolated the EVs secreted to the culture medium, centrifuged the collected medium to remove any dye-stained cell fragments, and confirmed the detection of fluorescence in the isolated EVs (Table 1). By contrast, for the EVs isolated from the same cell types under the same culture conditions but without treatment by our probe, the fluorescence detected was at the background level of blank culture medium.
(§5) Table 1: Estimate of the number of signals per EV. The fluorescence signal per EV is expressed in arbitrary units (a.u.), a relative value that highly depends on pH, dye concentration, and laser power. […]

The test system of data set [4] is EVs secreted by HEK293 cells. Briefly: Estimation of the fluorescence signal per EV. The class given is cell-based. The note with it: 5 μM leuco-BODIPY, 30 min, excitation 584 nm, emission 612 nm, net fluorescence divided by number of EVs (NTA). How it is done:
as §3, §4, §5

The subject of data set [5] is EVs secreted by HeLa cells. Briefly: Estimation of the fluorescence signal per EV. The note with it: 5 μM leuco-BODIPY, 30 min, excitation 584 nm, emission 612 nm, net fluorescence divided by number of EVs (NTA). It counts as cell-based. The protocol: as §3, §4, §5
Data set [6] deals with HeLa cells. As to the kind of experiment: Effect of probe staining on the secretion of EVs (nanoparticle tracking analysis). The settings on record: 5 μM leuco-BODIPY, 3 h, NTA. The class given is cell-based. The protocol: FIGS. 32A-32B Effect of probe staining on the secretion of EVs. HeLa cells were incubated with (FIG. 32A) complete DMEM or (FIG. 32B) DMEM containing 5 μM leuco-BODIPY for 3 h. After that, the EV sample was isolated from the cells for nanoparticle tracking analysis (NTA).
EV samples were diluted with filtered PBS (0.2 μm) to obtain an EV concentration of 10^8-10^9 particles/mL. For each sample, four 1-min videos were recorded when introduced about 1 mL of the conditioned medium to the NTA system (Malvern NanoSight NS500, Malvern, UK). The temperature was kept at about 18° C. Images in each video were analyzed with NTA 3.1 Build 3.1.45 software (Malvern). Auto settings were used for blur size and maximum jump distance. 2000 frames were examined per sample. […]
as §4

The compound `CCOC(=O)C(=Cc1ccc2n1[B-](F)(F)n1c(C=C(C(=O)OCC)C(=O)OCC)ccc1C2(OC)c1ccncc1)C(=O)OCC` [leuco-BODIPY] registered a new absorption band in data set [1] of around 360 nm. For the same compound, the cell viability result in the data set with A549 cells, in the data set on HEK293 cells and in the data set with HeLa cells [2] was “did not severely reduce cell viability” throughout. In addition, the “Mean fluorescence signal per EV” value in data set [3] was 4.17 × 10^−7 a.u; in data set [4], 1.67 × 10^−6 a.u; in data set [5] it was 4.63 × 10^−7 a.u. In addition, the “effect on EV secretion (size distribution of EVs from dye-stained vs unstained cells)” value in the data set with HeLa cells [6] is reported as “limited effect”.

These data come from US12578273B2, “Ph-reversible leuco-BODIPY probe for in situ visualization of extracellular vesicles and their secretion from living cells” (The Chinese University of Hong Kong, priority 2021, dated 2026).
